Reference: patent US8349804B2, “Bone graft and scaffolding materials immobilized with type I collagen binding peptides” (Seoul National University Industry Foundation, priority 2006, dated 2013)

Legend:
[1] = system: Human-osteocarcoma cells (KCLB No. 21543); assay: Test of cell adhesion on peptide-immobilized bone graft material; format: cell-based; settings: phalloidin staining, confocal laser scanning microscope
Experimental: […] The bone graft materials with the cultured human-osteocarcoma cell were fixed with 2% glutaraldehyde solution. The fixed bone graft materials were treated with 1% triton X-100 and then added with a fluorescent-labeled phalloidin solution, thus staining the attached cytoplasm.

[2] = Test of calcification (calcein staining, confocal microscopy); format: cell-based, human; settings: cultured 14 days in medium for forming hard tissue; compared with group without peptides
Experimental: The bone graft materials prepared in Examples 2 was added to a medium for forming a hard tissue containing calcein (fluorescent marker of calcium), and human mesenchymally derived stem cells (C2Cl2: ATCC CRL-1772) were cultured for 14 days. The cultured osteoblasts werefixed with 2% glutaraldehyde solution and treated with 1% triton X-100 and then added with a fluorescent-labeled phalloidin solution, thus staining the fixed cytoplasm.

[3] = system: ERK; assay: Western blot of phosphorylated ERK (pERK); format: cell-based, human; settings: C2C12 cells treated with peptides for 30 min; compared with non-treated cells (NT)
Experimental: In order to examine the expression of differentiation marker protein in osteoblasts cultured on the surface of the bone graft material on which peptides added with cysteine at each N-terminal end of amino acid sequences of SEQ ID NOs: 1, 2 and 3, prepared in example 2 according to the present invention were immobilized, the peptides were exposed to human mesenchymally derived stem cells (C2C12) for 30 min, and collected to measure the amount of ERK protein, a marker proteins involved in intracellular signal transfer, by Western blot.
The human mesenchymally derived stem cells were transplanted to 60 mm of petridish, treated with peptides for 30 min. Whole intracellular protein was extracted and quantitated by Bradford method. 40[…] of protein was electrophoresed on acrylamide gel and transferred to nitrocellulose membrane, and ERK, intracellular signal transmission protein within cell was reacted with the antibody of phosphorylated ERK (pERK), followed by reacting with the second antibody labeled with a marker. The membrane was developed to observe the protein bands and measure densities thereof (FIG. 4).

[4] = system: type I collagen; assay: Affinity of peptide to type I collagen by Biacore X; format: binding; settings: type I collagen bound to CM5 chip, peptide dissolved to be 4 μmol, ranking among SEQ ID NO: 1-3
Source text: The synthesized peptide's affinity to type I collagen was examined using Biacore X (Biacore Co., Sweden). After the type I collagen was bound to CM5 chip, the amount of peptides binding with collagen was quantitated while flowing the prepared peptide dissolved to be 4 μmol into micro-channels of Biacore X (FIG. 1).

Chain of type I collagen (P02452 162-1218 limits assumed): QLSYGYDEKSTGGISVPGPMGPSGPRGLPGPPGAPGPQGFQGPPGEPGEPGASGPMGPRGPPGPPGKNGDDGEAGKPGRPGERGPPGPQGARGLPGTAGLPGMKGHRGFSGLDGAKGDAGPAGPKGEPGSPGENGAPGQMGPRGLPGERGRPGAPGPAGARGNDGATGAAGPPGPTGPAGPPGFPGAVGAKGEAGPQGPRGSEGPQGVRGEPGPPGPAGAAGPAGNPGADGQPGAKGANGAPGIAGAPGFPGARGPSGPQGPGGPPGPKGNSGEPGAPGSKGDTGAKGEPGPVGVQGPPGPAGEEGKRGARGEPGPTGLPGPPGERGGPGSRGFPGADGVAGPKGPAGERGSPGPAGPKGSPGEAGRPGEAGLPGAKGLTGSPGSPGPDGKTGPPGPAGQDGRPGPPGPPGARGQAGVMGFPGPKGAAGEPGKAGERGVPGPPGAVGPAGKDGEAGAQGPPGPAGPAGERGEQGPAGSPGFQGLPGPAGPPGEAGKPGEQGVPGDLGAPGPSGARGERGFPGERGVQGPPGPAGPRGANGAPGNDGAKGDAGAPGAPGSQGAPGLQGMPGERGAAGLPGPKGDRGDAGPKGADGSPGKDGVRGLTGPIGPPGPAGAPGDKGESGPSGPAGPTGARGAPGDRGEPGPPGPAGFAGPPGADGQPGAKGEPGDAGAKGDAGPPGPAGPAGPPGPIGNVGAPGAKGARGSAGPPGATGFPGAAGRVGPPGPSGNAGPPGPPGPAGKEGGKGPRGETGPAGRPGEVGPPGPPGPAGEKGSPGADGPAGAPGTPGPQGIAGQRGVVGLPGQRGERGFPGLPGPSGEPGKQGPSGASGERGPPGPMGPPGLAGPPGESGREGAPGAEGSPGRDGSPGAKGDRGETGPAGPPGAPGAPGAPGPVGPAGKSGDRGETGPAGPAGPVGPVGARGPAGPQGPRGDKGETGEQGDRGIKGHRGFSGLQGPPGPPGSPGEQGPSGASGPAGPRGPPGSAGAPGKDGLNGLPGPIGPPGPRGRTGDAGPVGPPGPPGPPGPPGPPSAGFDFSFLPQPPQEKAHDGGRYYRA
Chain of type I collagen (P08123 80-1119 limits assumed, further chain): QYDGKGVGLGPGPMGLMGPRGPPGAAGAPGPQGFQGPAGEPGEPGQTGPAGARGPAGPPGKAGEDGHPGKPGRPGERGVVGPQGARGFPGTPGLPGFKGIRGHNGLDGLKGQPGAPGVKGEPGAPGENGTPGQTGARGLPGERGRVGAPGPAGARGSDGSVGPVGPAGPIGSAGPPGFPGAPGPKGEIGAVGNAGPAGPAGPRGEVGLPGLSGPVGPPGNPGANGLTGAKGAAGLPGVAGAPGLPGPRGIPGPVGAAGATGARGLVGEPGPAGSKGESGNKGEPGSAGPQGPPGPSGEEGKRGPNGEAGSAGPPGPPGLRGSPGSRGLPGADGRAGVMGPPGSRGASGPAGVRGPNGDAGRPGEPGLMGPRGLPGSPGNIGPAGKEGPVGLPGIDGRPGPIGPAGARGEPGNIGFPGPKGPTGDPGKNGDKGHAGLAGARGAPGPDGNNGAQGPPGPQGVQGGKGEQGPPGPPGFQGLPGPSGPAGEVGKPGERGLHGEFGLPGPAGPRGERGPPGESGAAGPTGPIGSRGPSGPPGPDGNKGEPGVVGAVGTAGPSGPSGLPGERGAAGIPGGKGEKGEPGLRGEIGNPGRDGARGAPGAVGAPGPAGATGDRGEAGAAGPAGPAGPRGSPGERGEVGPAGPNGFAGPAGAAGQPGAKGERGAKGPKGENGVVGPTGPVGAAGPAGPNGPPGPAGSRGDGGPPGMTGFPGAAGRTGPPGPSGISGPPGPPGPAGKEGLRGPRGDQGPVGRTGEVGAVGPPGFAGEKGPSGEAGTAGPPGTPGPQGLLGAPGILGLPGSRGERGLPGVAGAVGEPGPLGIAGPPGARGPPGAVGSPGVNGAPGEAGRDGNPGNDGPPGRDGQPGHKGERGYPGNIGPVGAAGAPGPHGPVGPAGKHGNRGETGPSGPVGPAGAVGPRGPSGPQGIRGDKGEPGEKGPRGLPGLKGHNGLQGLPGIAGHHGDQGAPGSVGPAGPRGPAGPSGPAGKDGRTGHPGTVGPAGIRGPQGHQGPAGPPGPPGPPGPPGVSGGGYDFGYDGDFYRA

Row | Substance | cell adhesion pattern on coated surface [1] | calcium adhesion (calcein fluorescence), calcification of cells [2] | expression of phosphorylated ERK (pERK) [3] | affinity to type I collagen (amount of peptide binding with collagen) [4]
1 | Bovine serum albumin [BSA, reference compound] | spherical and unstable adhesion aspect of the cells |  |  | 
2 | YRLKRSKSKMFHVSNAQYPGA (listed as Oryctolagus cuniculus) [SEQ ID NO: 3] | stable adhesion of the cells | much more fluorescence | significantly increased | highest affinity
3 | YRLKRSKS (listed as Oryctolagus cuniculus) [SEQ ID NO: 1] | stable adhesion of the cells | much more fluorescence | significantly increased | 
4 | KMFHVSNAQYPGA (listed as Oryctolagus cuniculus) [SEQ ID NO: 2] | stable adhesion of the cells | much more fluorescence | significantly increased | lowest affinity
